Converted amounts (≈) assume the structure as drawn. “And” between values parts separate entries of the source, which are not always exact repeats. Equal values may be shown once.
What was measured:
Test in all cases: ≥ marks a high value that may be exact or a test limit, other limits are often not marked, values filed in µg/mL are converted to µM
[1] = tested on: Candida albicans ATCC 90028
[2] = tested on: Candida parapsilosis ATCC 22019
Saccharomyces cerevisiae = tested on: Saccharomyces cerevisiae
[3] = tested on: Escherichia coli ATCC 35218
[4] = tested on: Staphylococcus aureus ATCC 25923
Aspergillus flavus = tested on: Aspergillus flavus
[5] = tested on: Escherichia coli ATCC 25922
Bacillus megaterium = tested on: Bacillus megaterium
[6] = tested on: Pseudomonas aeruginosa ATCC 27853
[7] = tested on: Enterococcus faecalis ATCC 29212
Staphylococcus aureus = tested on: Staphylococcus aureus
[8] = tested on: Staphylococcus aureus ATCC 2576
[9] = tested on: Candida albicans ATCC 3007
[10] = tested on: Shigella dysenteriae ATCC 2932
Shigella dysenteriae = tested on: Shigella dysenteriae
Escherichia coli = tested on: Escherichia coli
[11] = tested on: Escherichia coli ATCC 25629
[12] = tested on: Cutibacterium acnes ATCC 11828
[13] = tested on: Staphylococcus aureus NCTC 8325
[14] = tested on: Salmonella enterica subsp. enterica serovar Typhimurium LT2
[15] = tested on: Candida albicans ATCC 900280
[16] = tested on: Enterobacter cloacae HNTCC 53001
[17] = tested on: Klebsiella pneumoniae KK3 9904
[18] = tested on: Escherichia coli ATCC 25726
[19] = tested on: Staphylococcus aureus T7/5
[20] = tested on: Clostridium perfringens ATCC 10543
[21] = tested on: Prevotella melaninogenica
[22] = tested on: Clostridium tertium ATCC 19465
[23] = tested on: Peptostreptococcus anaerobius
Bacteroides fragilis = tested on: Bacteroides fragilis
[24] = tested on: Proteus mirabilis ATCC 25933
[25] = tested on: Fusobacterium varium ATCC 27725
Cutibacterium acnes = tested on: Cutibacterium acnes
[26] = tested on: Peptoniphilus asaccharolyticus ATCC 29743
Fusobacterium nucleatum = tested on: Fusobacterium nucleatum
Clostridium septicum = tested on: Clostridium septicum
[27] = tested on: Bacteroides fragilis ATCC 25285
[28] = tested on: Staphylococcus epidermidis RP62A
Staphylococcus simulans = tested on: Staphylococcus simulans
[29] = tested on: Acinetobacter baumannii ATCC 19606
Micrococcus luteus = tested on: Micrococcus luteus
[30] = tested on: Staphylococcus aureus II ATCC 6538P
Escherichia coli D21 = tested on: Escherichia coli D21
[31] = tested on: Staphylococcus epidermidis LT1324

SMILES: CC[C@H](C)[C@H](NC(=O)[C@@H]1CCCN1C(=O)[C@H](CC(C)C)NC(=O)[C@@H](N)Cc1ccccc1)C(=O)N[C@H](C(=O)N[C@H](C(=O)N[C@@H](CC(N)=O)C(=O)N[C@@H](CC(C)C)C(=O)N[C@@H](CC(C)C)C(=O)N[C@@H](CO)C(=O)NCC(=O)N[C@@H](CC(C)C)C(=O)N[C@@H](CC(C)C)C(=O)O)[C@@H](C)O)C(C)C [FLPIVTNLLSGLL]
- MIC [1]: ≥ 116 µM
- MIC [2]: ≥ 116 µM
- MIC (Saccharomyces cerevisiae): ≥ 116 µM
- MIC [3]: ≥ 116 µM
- MIC [4]: 58 µM (≈ 81.2 µg/mL)
- MIC (Aspergillus flavus): ≥ 58 µM
- MIC [5]: 231 µM (≈ 323 µg/mL)
- MIC (Bacillus megaterium): ≥ 46 µM
- MIC [6]: > 231 µM
- MIC [7]: > 116 µM

SMILES: CC[C@H](C)[C@H](NC(=O)CN)C(=O)N[C@@H](CC(C)C)C(=O)N[C@@H](CCCCN)C(=O)N[C@@H](CCCCN)C(=O)N[C@@H](Cc1ccccc1)C(=O)N[C@@H](CCSC)C(=O)N[C@@H](CC(C)C)C(=O)N[C@@H](Cc1cnc[nH]1)C(=O)N[C@@H](CCCN=C(N)N)C(=O)NCC(=O)N[C@H](C(=O)N[C@@H](CCCCN)C(=O)N[C@H](C(=O)N[C@@H](Cc1ccc(O)cc1)C(=O)N[C@@H](CCCCN)C(=O)N[C@@H](CCSC)C(=O)N[C@@H](CCCN=C(N)N)C(=O)N[C@H](C(=O)N[C@@H](CC(C)C)C(=O)N[C@@H](CO)C(=O)N[C@@H](CCCCN)C(=O)N[C@@H](CCCN=C(N)N)C(=O)N[C@@H](CO)C(=O)N[C@@H](Cc1cnc[nH]1)C(=O)O)[C@@H](C)O)C(C)C)[C@@H](C)O [GILKKFMLHRGTKVYKMRTLSKRSH]
- MIC (Staphylococcus aureus): 0.332 µM (≈ 1 µg/mL)
- MIC [8]: 0.166 µM (≈ 0.5 µg/mL)
- MIC [9]: 2.49 µM (≈ 7.5 µg/mL)
- MIC [10]: 0.829 µM (≈ 2.5 µg/mL)
- MIC (Shigella dysenteriae): 1.66 µM (≈ 5 µg/mL)
- MIC (Escherichia coli): 1.66 µM (≈ 5 µg/mL)
- MIC [11]: 1.66 µM (≈ 5 µg/mL)

SMILES: CC[C@H](C)[C@H](NC(=O)[C@H](CCCCN)NC(=O)[C@H](CCCCN)NC(=O)[C@H](C)NC(=O)[C@H](CC(C)C)NC(=O)[C@H](CC(N)=O)NC(=O)[C@@H](NC(=O)[C@H](CC(C)C)NC(=O)[C@@H](NC(=O)CNC(=O)[C@H](CC(C)C)NC(=O)[C@H](Cc1ccccc1)NC(=O)[C@@H](N)Cc1cnc[nH]1)[C@@H](C)O)C(C)C)C(=O)N[C@@H](CC(C)C)C(N)=O [HFLGTLVNLAKKIL]
- MIC [12]: 6 µM (≈ 9.4 µg/mL)
- MIC [13]: 6.32 µM (≈ 9.9 µg/mL)
- MIC [14]: ≥ 32 µM
- MIC [15]: 16 µM (≈ 25.1 µg/mL)
- MIC [1]: ≥ 40 µM and 25 µM
- MIC [16]: ≥ 32 µM
- MIC [17]: ≥ 32 µM
- MIC [18]: ≥ 32 µM
- MIC [19]: 10 µM (≈ 15.7 µg/mL)
- MIC [20]: 6 µM (≈ 9.4 µg/mL)
- MIC [21]: 12.5 µM (≈ 19.6 µg/mL)
- MIC [4]: 8 µM (≈ 12.5 µg/mL)
- MIC [22]: 3 µM (≈ 4.7 µg/mL)
- MIC [23]: 12.5 µM (≈ 19.6 µg/mL)
- MIC [5]: 20 µM (≈ 31.3 µg/mL)
- MIC (Bacteroides fragilis): ≥ 50 µM
- MIC [24]: ≥ 128 µM
- MIC [25]: ≥ 50 µM
- MIC (Cutibacterium acnes): 6 µM (≈ 9.4 µg/mL)
- MIC [26]: 25 µM (≈ 39.1 µg/mL)
- MIC (Fusobacterium nucleatum): 25 µM (≈ 39.1 µg/mL)
- MIC [6]: 32 µM (≈ 50.1 µg/mL)
- MIC (Clostridium septicum): 12.5 µM (≈ 19.6 µg/mL)
- MIC [27]: ≥ 50 µM
- MIC [28]: 4 µM (≈ 6.26 µg/mL)
- MIC [7]: 16 µM (≈ 25.1 µg/mL)

SMILES: CC(C)C[C@H](NC(=O)[C@H](CC(C)C)NC(=O)[C@H](CCCCN)NC(=O)[C@H](CC(C)C)NC(=O)[C@H](CC(C)C)NC(=O)[C@H](CCCCN)NC(=O)[C@H](CC(C)C)NC(=O)[C@H](CC(C)C)NC(=O)[C@H](CCCCN)NC(=O)[C@H](CC(C)C)NC(=O)[C@H](CC(C)C)NC(=O)[C@H](CCCCN)NC(=O)[C@H](CC(C)C)NC(=O)[C@@H](N)CCCCN)C(=O)N[C@@H](CCCCN)C(N)=O [KLKLLKLLKLLKLLK]
- MIC (Staphylococcus simulans): 1.5 µM (≈ 2.71 µg/mL)
- MIC [29]: 2 µM (≈ 3.61 µg/mL)
- MIC (Micrococcus luteus): 2 µM (≈ 3.61 µg/mL)
- MIC [30]: 6 µM (≈ 10.8 µg/mL)
- MIC (Escherichia coli D21): 3 µM (≈ 5.41 µg/mL)
- MIC [5]: 3 µM (≈ 5.41 µg/mL)
- MIC [31]: 1.5 µM (≈ 2.71 µg/mL)
- MIC [6]: 6 µM (≈ 10.8 µg/mL)

Reference: DBAASP
